Laboratory results taken from patent US9862718B2, “Sodium salt of (2S, 5R)-6-benzyloxy-7-oxo-1,6-diaza-bicyclo [3.2.1] octane-2-carboxylic acid and its preparation” (WOCKHARDT LIMITED, priority 2013, dated 2018).

Assays:
Format in all cases: physicochemical
[1] = stability of the free acid on storage (attempts to prepare this compound); conditions: syrupy in nature
Source text: The compound of Formula (V) i.e. (2S,5R)-6-benzyloxy-7-oxo-1,6-diaza-bicyclo[3.2.1]octane-2-carboxylic acid is disclosed in International Patent Application No. PCT/FR01/02418. […] US Patent Publication No. 20100197928 discloses a procedure to prepare a diastereomeric mixture of (S)-5-benzyloxyamino-piperidin-2-carboxylic acid benzyl ester as an oxalate salt in 50:50 ratio.

[2] = hygroscopicity of the isolated solid; conditions: isolated solid material, compared with the corresponding free acid
Method: (1) The compound of Formula (I) is isolable as a highly pure solid material (purity of about at least 98% as determined by HPLC) and is a non-hygroscopic material as compared with the corresponding free acid (compound of Formula (V), which is obtained as syrupy material).
The precipitated solid was filtered under suction and the wet cake was washed with chilled acetone (400 ml). The non-hygroscopic solid was dried under vacuum at 40° C. for 1 hour to provide off-white colored material (sodium salt of (2S,5R)-6-benzyloxy-7-oxo-1,6-diaza-bicyclo{3.2.1}-octane-2-carboxylic acid) in 135 gm (89%, calculation adjusted for 70% purity of free acid) quantity.

[3] = stability study on storage at room temperature (purity by HPLC)

Row | SMILES | stability on storage [1] | hygroscopicity [2] | purity as analyzed by HPLC, initial purity ([3]; stability study, room temperature, initial) [%] | stability on storage ([3]; storage at room temperature for three months) | purity as analyzed by HPLC, purity after three months ([3]; storage at room temperature, after three months) [%] | purity as analyzed by HPLC, purity after two moths ([3]; storage at room temperature, after two moths) [%]
1 | O=C(O)[C@@H]1CC[C@@H]2CN1C(=O)N2OCc1ccccc1 [Formula (V), (2S,5R)-6-benzyloxy-7-oxo-1,6-diaza-bicyclo[3.2.1]octane-2-carboxylic acid] | unstable |  |  |  |  | 
2 | O=C([O-])[C@@H]1CC[C@@H]2CN1C(=O)N2OCc1ccccc1.[Na+] [Formula (I), sodium salt of (2S,5R)-6-benzyloxy-7-oxo-1,6-diaza-bicyclo[3.2.1]octane-2-carboxylic acid] |  | non-hygroscopic | 99.75 | excellent stability | 99.66 | 99.69
